Assay results reported in patent publication US10183020B2 (AstraZeneca AB, priority 2014, dated 2019).

How the values were obtained:
[1] = system: EGFRm+ sensitising and the T790M resistance mutant forms of EGFR; conditions: cited from earlier work
[2] = Solubility of AZD9291 in simulated gastric fluid, human intestinal fluid and at intestinal pH
Description: (§1) In such cases, where the solubility of a drug varies with pH, and particularly when the solubility is highest at acidic pH, there is a problem that the drug may precipitate from solution as it passes through the gastrointestinal tract. Drugs need to be in solution in order to be absorbed, so such precipitation can lead to variability in the extent and/or rate of absorption of the drug. […] In principle, the dose administered to a patient could be increased to account for potentially poor absorption, but this approach introduces a risk that too much of the drug may enter the patient's system in some cases—which may be a safety risk and/or increase the risk/severity of side-effects. […] Accordingly, there remained a problem to provide an improved way of dosing the Agent to patients that should reduce/avoid the risk of and/or severity of the above-mentioned problems of inter-patient variability of absorption and/or inter-dose variability of absorption.

[3] = Permeability; format: in vitro ADME
Description: as §1

[4] = system: wild-type EGFR lines; conditions: in vitro, compared with mutant cell lines; cited from earlier work
[5] = system: advanced EGFRm T790M+ lung adenocarcinoma; experiment: Phase 1 clinical trial; format: in vivo, human; conditions: a number of patients; Agent in the form of the mesylate salt
Description: Further details of this ‘blend in capsule’ formulation are described hereinafter as ‘Comparative Example 1’.

[6] = system: EGFRm+ and T790M mutant cell lines; conditions: in vitro; cited from earlier work
[7] = system: EGFRm+ and T790M mutant tumour xenograft and transgenic models; conditions: doses as low as 5 mg/kg/day; cited from earlier work
[8] = Stability of solution (precipitation); format: physicochemical; conditions: solution once formed

Compound | inhibition of EGFRm+ sensitising and T790M resistance mutant forms of EGFR [1] | pH dependent solubility [2] | permeability [3] | activity against wild-type EGFR lines [4] | clinical response [5] | inhibition of EGFR signaling pathways and cellular growth [6] | tumor regression [7] | period over which solution is stable without precipitation [8] | solubility at intestinal pH compared with AZD9291 in free base form ([2]; intestinal pH)
C=CC(=O)Nc1cc(Nc2nccc(-c3cn(C)c4ccccc34)n2)c(OC)cc1N(C)CCN(C)C [AZD9291, N-(2-{2-dimethylaminoethyl-methylamino}-4-methoxy-5-{[4-(1-methylindol-3-yl)pyrimidin-2-yl]amino}phenyl)prop-2-enamide] | potent inhibitor | significant pH dependent solubility | moderate permeability | much less activity | partial responses | potently inhibits | profound and sustained tumor regression | – | –
AZD9291 mesylate | – | – | – | – | – | – | – | at least 24 hours | significantly higher
